{"source": "patent US20130274100A1", "about": "“Synergistic Fungicidal Active Substance Combinations” (priority 2005, published 2013)", "key": {"Puccinia recondita": {"system": "Puccinia recondita", "assay": "Puccinia test (wheat)/protective", "type": "in vivo", "settings": "protective spray, evaluation 10 days after inoculation", "from_the_text": "The expected fungicidal action for a given combination of two active compounds can be calculated as follows, according to S. R. Colby (“Calculating Synergistic and Antagonistic Responses of Herbicide Combinations”, Weeds 1967, 15, 20-22): • X is the efficacy when employing active compound A at an application rate of m g/ha, • Y is the efficacy when employing active compound B at an application rate of n g/ha and • E is the efficacy when employing active compounds A and B at application rates of m and n g/ha, then Here, the efficacy is determined in %. 0% means an efficacy which corresponds to that of the control, whereas an efficacy of 100% means that no infection is observed. If the actual fungicidal action exceeds the calculated value, the action of the combination is superadditive, i.e. a synergistic effect is present. In this case, the actually observed efficacy must exceed the value calculated using the above formula for the expected efficacy (E). Puccinia Test (Wheat)/Protective Solvent: 50 parts by weight of N,N-dimethylacetamide Emulsifier: 1 part by weight of alkylaryl polyglycol ether To produce a suitable preparation of active compound, 1 part by weight of active compound is mixed with the stated amounts of solvent and emulsifier or a commercial active compound formulation, and the concentrate is diluted with water to the desired concentration. To test for protective activity, young plants are sprayed with the preparation of active compound at the stated application rate. After the spray coating has dried on, the plants are sprayed with a conidia suspension of Puccinia recondita. The plants remain in an incubation cabin at 20° C. and 100% relative atmospheric humidity for 48 hours. The plants are then placed in a greenhouse at a temperature of about 20° C. and a relative atmospheric humidity of 80% to promote the development of rust postules. Evaluation is carried out 10 days after the inoculation. 0% means inefficacy which corresponds to that of the control, whereas an efficacy of 100% means that no infection is observed."}, "[1]": {"system": "Erysiphe graminis f.sp. tritici", "assay": "Erysiphe test (wheat)/protective", "type": "in vivo", "settings": "protective spray, application rate 62.5 g/ha, evaluation 7 days after inoculation", "from_the_text": "The expected fungicidal action for a given combination of two active compounds can be calculated as follows, according to S. R. Colby (“Calculating Synergistic and Antagonistic Responses of Herbicide Combinations”, Weeds 1967, 15, 20-22): • X is the efficacy when employing active compound A at an application rate of m g/ha, • Y is the efficacy when employing active compound B at an application rate of n g/ha and • E is the efficacy when employing active compounds A and B at application rates of m and n g/ha, then Here, the efficacy is determined in %. 0% means an efficacy which corresponds to that of the control, whereas an efficacy of 100% means that no infection is observed. If the actual fungicidal action exceeds the calculated value, the action of the combination is superadditive, i.e. a synergistic effect is present. In this case, the actually observed efficacy must exceed the value calculated using the above formula for the expected efficacy (E). Erysiphe Test (Wheat)/Protective Solvent: 50 parts by weight of N,N-dimethylacetamide Emulsifier: 1 part by weight of alkylarylpolyglycol ether To produce a suitable preparation of active compound, 1 part by weight of active compound is mixed with the stated amounts of solvent and emulsifier or a commercial active compound formulation, and the concentrate is diluted with water to the desired concentration. To test for protective activity, young plants are sprayed with the preparation of active compound at the stated application rate. After the spray coating has dried on, the plants are dusted with spores of Erysiphe graminis f.sp. tritici. The plants are placed in a greenhouse at a temperature of about 20° C. and a relative atmospheric humidity of about 80% to promote the development of mildew pustules. Evaluation is carried out 7 days after the inoculation. 0% means an efficacy which corresponds to that of the control, whereas an efficacy of 100% means that no infection is observed."}}}
{"smiles": "CC(C)CC(C)c1sccc1NC(=O)c1cn(C)nc1C(F)(F)F", "note": "(stereo not shown) [(1-1), N-[2-(1,3-dimethylbutyl)-3-thienyl]-1-methyl-3-(trifluoromethyl)-1H-pyrazole-4-carboxamide]", "values": [{"measurement": "Efficacy in % found", "setting": "Puccinia recondita; application rate 125 g/ha", "value": 33, "unit": "%"}, {"measurement": "Efficacy in % found", "setting": "Puccinia recondita; application rate 250 g/ha", "value": 67, "unit": "%"}, {"measurement": "Efficacy in % found", "setting": "[1]", "value": 0, "unit": "%"}]}
{"smiles": "CO/C=C(/C(=O)OC)c1ccccc1COc1cccc(C(F)(F)F)n1", "note": "[(2-9), Picoxystrobin]", "values": [{"measurement": "Efficacy in % found", "setting": "Puccinia recondita; application rate 250 g/ha", "value": 94, "unit": "%"}, {"measurement": "Efficacy in % found", "setting": "[1]", "value": 71, "unit": "%"}]}
{"smiles": "CCCC1COC(Cn2cncn2)(c2ccc(Cl)cc2Cl)O1", "note": "(stereo not shown) [(3-3), Propiconazole]", "values": [{"measurement": "Efficacy in % found", "setting": "Puccinia recondita; application rate 125 g/ha", "value": 56, "unit": "%"}, {"measurement": "Efficacy in % found", "setting": "[1]", "value": 29, "unit": "%"}]}
{"smiles": "CC(C1CC1)C(O)(Cn1cncn1)c1ccc(Cl)cc1", "note": "(stereo not shown) [(3-6), Cyproconazole]", "values": [{"measurement": "Efficacy in % found", "setting": "Puccinia recondita; application rate 125 g/ha", "value": 94, "unit": "%"}, {"measurement": "Efficacy in % found", "setting": "[1]", "value": 57, "unit": "%"}]}
{"smiles": "CCCCC(O)(Cn1cncn1)c1ccc(Cl)cc1Cl", "note": "(stereo not shown) [(3-7), Hexaconazole]", "values": [{"measurement": "Efficacy in % found", "setting": "Puccinia recondita; application rate 125 g/ha", "value": 78, "unit": "%"}, {"measurement": "Efficacy in % found", "setting": "[1]", "value": 29, "unit": "%"}]}
{"smiles": "Cc1cc(C2CC2)nc(Nc2ccccc2)n1", "note": "[(9-1), Cyprodinil]", "values": [{"measurement": "Efficacy in % found", "setting": "Puccinia recondita; application rate 125 g/ha", "value": 0, "unit": "%"}, {"measurement": "Efficacy in % found", "setting": "[1]", "value": 0, "unit": "%"}]}
